This is an account of results in patent US6399541B1, “Substituted 2,4-diamino-1,3,5-triazines as herbicides” (Bayer Aktiengesellschaft, priority 1997, dated 2002).

The subject of series [1] is weeds. Briefly: Post-emergence test. The series is classed as in vivo. To be noted: cf. Table B. The procedure:
(§1) Solvent: 5 parts by weight of acetone
(§2) Emulsifier: 1 part by weight of alkylaryl polyglycol ether
(§3) To produce a suitable preparation of active compound, 1 part by weight of active compound is mixed with the stated amount of solvent, the stated amount of emulsifier is added and the concentrate is diluted with water to the desired concentration.
(§4) Test plants which have a height of 5 to 15 cm are sprayed with the preparation of active compound in such a way that the particular amounts of active compound desired are applied per unit area. The concentration of the spray liquor is chosen such that the particular amounts of active compound desired are applied in 1000 l of water/ha.
(§5) After three weeks, the degree of damage to the plants is assessed in % damage in comparison to the development of the untreated control.
(§6) 0%=no effect (as untreated control)

Series [2] relates to Ipomoea. Briefly: Post-emergence test/greenhouse. The series is classed as in vivo. As to conditions: after three weeks. The procedure: as §1, §2, §3, §4, §5, §6
A further series has as its system Solanum. Briefly: Post-emergence test/greenhouse. The series is classed as in vivo. As to conditions: 60 g of ai./ha, after three weeks. The procedure: as §1, §2, §3, §4, §5, §6
The subject of a further series is Veronica. Briefly: Post-emergence test/greenhouse. As to conditions: after three weeks. Format: in vivo. The procedure:
as §1, §2, §3, §4, §5, §6

In a further series the test system is Matricaria. Briefly: Post-emergence test/greenhouse. The series is classed as in vivo. As to conditions: 125 g of ai./ha, after three weeks. The procedure:
as §1, §2, §3, §4, §5, §6

The next series relates to Polygonum. Briefly: Post-emergence test/greenhouse. Format: in vivo. As to conditions: 60 g of ai./ha, after three weeks. The procedure: as §1, §2, §3, §4, §5, §6
Series [3] relates to Cassia. Briefly: Post-emergence test/greenhouse. The series is classed as in vivo. To be noted: 125 g of ai./ha, after three weeks. The method, then: as §1, §2, §3, §4, §5, §6
The test system of series [4] is weeds. Briefly: Pre-emergence test. The series is classed as in vivo. To be noted: cf. Table A. The method, then:
as §1, §2, §3
(§7) Seeds of the test plants are sown in normal soil. After about 24 hours, the soil is sprayed with the preparation of active compound in such a way that the particular amounts of active compound desired are employed per unit area. The concentration of the spray liquor is chosen such that the particular amounts of active compound desired are applied in 1000 l of water/ha.
as §5
(§8) 0%=no effect (as untreated control) 100%=total destruction

The subject of the next series is Amaranthus. Briefly: Pre-emergence test/greenhouse. Format: in vivo. As to conditions: 1000 g of ai./ha, after three weeks. The procedure:
as §1, §2, §3, §7, §5, §8

The subject of the next series is Galium. Briefly: Pre-emergence test/greenhouse. The series is classed as in vivo. To be noted: 1000 g of ai./ha, after three weeks. The procedure:
as §1, §2, §3, §7, §5, §8

For series [5], the system named is Xanthium. Briefly: Pre-emergence test/greenhouse. Format: in vivo. To be noted: 1000 g of ai./ha, after three weeks. The method, then:
as §1, §2, §3, §7, §5, §8

Another series relates to Abutilon. Briefly: Pre-emergence test/greenhouse. Format: in vivo. As to conditions: 1000 g of ai./ha, after three weeks. The procedure:
as §1, §2, §3, §7, §5, §8

For a further series, the system named is Alopecurus. Briefly: Pre-emergence test/greenhouse. The series is classed as in vivo. As to conditions: after three weeks. The procedure: as §1, §2, §3, §7, §5, §8
The subject of the next series is Avena fatua. Briefly: Pre-emergence test/greenhouse. The series is classed as in vivo. As to conditions: after three weeks. The procedure: as §1, §2, §3, §7, §5, §8
Series [6] relates to Xanthium. Briefly: Post-emergence test/greenhouse. The series is classed as in vivo. As to conditions: 125 g of ai./ha, after three weeks. The procedure: as §1, §2, §3, §4, §5, §6
For series [7], the system named is Setaria. Briefly: Post-emergence test/greenhouse. Format: in vivo. As to conditions: 125 g of ai./ha, after three weeks. The method, then: as §1, §2, §3, §4, §5, §6
A further series relates to Echinochloa. Briefly: Post-emergence test/greenhouse. The series is classed as in vivo. As to conditions: 125 g of ai./ha, after three weeks. The method, then: as §1, §2, §3, §4, §5, §6
The subject of series [8] is Setaria. Briefly: Pre-emergence test/greenhouse. As to conditions: after three weeks. Format: in vivo. The procedure: as §1, §2, §3, §7, §5, §8
For the next series, the system named is Barley. Briefly: Post-emergence test/greenhouse. As to conditions: 125 g of ai./ha, after three weeks. The series is classed as in vivo. The method, then:
as §1, §2, §3, §4, §5, §6

In another series the test system is Wheat. Briefly: Post-emergence test/greenhouse. Format: in vivo. To be noted: 125 g of ai./ha, after three weeks. The method, then: as §1, §2, §3, §4, §5, §6
Series [9] has as its system Ipomoea. Briefly: Pre-emergence test/greenhouse. To be noted: 250 g of ai./ha, after three weeks. Format: in vivo. The procedure: as §1, §2, §3, §7, §5, §8
A further series concerns Viola. Briefly: Pre-emergence test/greenhouse. The series is classed as in vivo. To be noted: 250 g of ai./ha, after three weeks. The method, then:
as §1, §2, §3, §7, §5, §8

The subject of series [10] is Cassia. Briefly: Pre-emergence test/greenhouse. As to conditions: 250 g of ai./ha, after three weeks. Format: in vivo. The procedure:
as §1, §2, §3, §7, §5, §8

Turning to `CCC(Nc1nc(N)nc(C(C)F)n1)c1ccccc1` (racemic) [Example 1, 2-amino-4-(1-fluoro-ethyl)-6-(1-phenyl-propyl-amino)-1,3,5-triazine], the “activity against weeds compared with known compound (A)” value with weeds [1] was “considerably stronger activity against weeds than the known compound (A)”. In addition, the “degree of damage, Ipomoea” value in the series with Ipomoea [2] (60 g of ai./ha) and with Ipomoea [2] (125 g of ai./ha) was 100% each time. Moreover, the “degree of damage, Solanum” value with Solanum was 95%. Moreover, the “degree of damage, Veronica” value is on record as 95% with Veronica (60 g of ai./ha) and 100% with Veronica (125 g of ai./ha). Further, in the series with Matricaria, the “degree of damage, Matricaria” value is 80%. Also, in the series with Polygonum, the “degree of damage, Polygonum” value turned out to be 100%. In addition, in the series with Cassia [3], the “degree of damage, Cassia” value is 90%. The “action against weeds compared with known compound (A)” value in the series with weeds [4] was “considerably strong action against weeds than the known compound (A)”. Further, the “degree of damage, Amaranthus” value with Amaranthus was 100%. In addition, the “degree of damage, Galium” value in the series with Galium is recorded as 100%. In the series on Xanthium [5], the “degree of damage, Xanthium” value turned out to be 100%. Moreover, the “degree of damage, Abutilon” value in the series on Abutilon is recorded as 70%. The “degree of damage, Alopecurus” value in the series with Alopecurus (1000 g of ai./ha) worked out at 100%. Further, the “degree of damage, Avena fatua” value in the series on Avena fatua (1000 g of ai./ha) was found to be 70%.
In the case of `CCC(Nc1nc(NC(C)=O)nc(C(C)F)n1)c1ccccc1` (racemic) [Example 2, 2-acetylamino-4-(1-fluoro-ethyl)-6-(1-phenyl-propylamino)-1,3,5-triazine], the melting point was found to be 118 °C. Further, the “activity against weeds compared with known compound (A)” value in the series with weeds [1] was “considerably stronger activity against weeds than the known compound (A)”. Also, in the series on Ipomoea [2] (125 g of ai./ha), the “degree of damage, Ipomoea” value was 100%. Further, the “degree of damage, Xanthium” value in the series with Xanthium [6] was 80%. Further, in the series with Setaria [7], the “degree of damage, Setaria” value is listed as 80%. Further, the “degree of damage, Veronica” value with Veronica (125 g of ai./ha) is recorded as 95%. In addition, the “degree of damage, Matricaria” value in the series on Matricaria was determined as 95%. Further, the “degree of damage, Echinochloa” value with Echinochloa was found to be 80%. The “degree of damage, Cassia” value in the series with Cassia [3] was found to be 100%. For the same molecule, the “action against weeds compared with known compound (A)” value in the series with weeds [4] was “considerably strong action against weeds than the known compound (A)”. The “degree of damage, Amaranthus” value in the series on Amaranthus came out at 100%. For the same molecule, in the series with Setaria [8] (1000 g of ai./ha), the “degree of damage, Setaria” value came to 70%. Further, the “degree of damage, Abutilon” value with Abutilon is given as 100%. Besides, the “degree of damage, Alopecurus” value in the series with Alopecurus (1000 g of ai./ha) was determined as 90%.
As for `CC(Nc1nc(N)nc(C(C)(C)F)n1)c1ccccc1` (racemic) [Example 13], the “activity against weeds compared with known compound (A)” value in the series with weeds [1] is “considerably stronger activity against weeds than the known compound (A)”. Moreover, the entries for the “degree of damage, Ipomoea” value in the series on Ipomoea [2] (125 g of ai./ha) and in the series with Ipomoea [9] were 100% and 80%, respectively. Besides, the “degree of damage, Veronica” value with Veronica (125 g of ai./ha) turned out to be 100%. Also, the “degree of damage, Barley” value with Barley stood at 0%. In the series with Wheat, the “degree of damage, Wheat” value is 0%. Further, the “degree of damage, Cassia” value worked out at 95% with Cassia [3] and 100% in the series on Cassia [10]. Also, the “action against weeds compared with known compound (A)” value with weeds [4] is on record as “considerably strong action against weeds than the known compound (A)”. Also, the “degree of damage, Viola” value in the series on Viola is on record as 100%. Moreover, the “degree of damage, Setaria” value in the series with Setaria [8] (250 g of ai./ha) was determined as 80%. For the same molecule, the “degree of damage, Alopecurus” value in the series with Alopecurus (250 g of ai./ha) is on record as 90%. The “degree of damage, Avena fatua” value with Avena fatua (250 g of ai./ha) came out at 90%.

The term melting point denotes the temperature, or range, at which the solid turns liquid.
